Reference: US20250235465A1, “USE OF SODIUM TRANS-[TETRACHLORIDOBIS(1H-INDAZOLE)RUTHENATE(III)] TO AMELIORATE PROTEASOME INHIBITOR RESISTANCE” (Bold Therapeutics Inc., priority 2021, published 2025)
Where two headings read alike, the source gives them in different places.

What was measured:
[1] = test system: OPM2 LR (lenalidomide resistant); conditions: 24 hours
Protocol: (§1) The luminescent readings obtained in the assay were used to measure the percentage of cell death following treatment with increasing doses of BOLD-100 for 24 hours. Each cell line was treated in triplicate and the average cell death was used to calculate the IC50 or […] inhibitory concentration dose in these cell lines using a nonlinear regression fit.
(§2) Proteasome inhibitors (PI) and immunomodulatory drugs (IMiD) are used as standards of care treatments in MM disease in the clinic. […] Specifically, the MM.1S cell line was developed to acquire partial resistance to proteasome inhibitors bortezomib (MM.1S BR) and carfilzomib (MM.1S CR) by treating the MM.1S cell line with increasing doses of the drugs for about 6 months and the OPM2 cell line was developed to acquire partial resistance to IMiD lenalidomide (OPM2 LR) and pomalidomide (OPM2 PR) by treating the OPM2 cell line with increasing doses of the drugs for about 6 months.

[2] = test system: OPM2 PR (pomalidomide resistant); conditions: read-out: BOLD-100 IC50, 24 hours, Example 2, FIG. 2B
Protocol: as §1, §2

MM.1S = test system: MM.1S
Protocol: as §1, §2

OPM2 = conditions: OPM2, 24 hours
Protocol: as §1, §2

[3] = test system: MM.1S CR in presence of HS-5; conditions: MM.1S CR in co-culture with HS-5, FIG. 5
Protocol: (§3) Bone marrow stromal cells are understood to provide a protective environment for cells, insulating bone marrow cells from drug effects. […] To do this, a co-culture assay was carried out, in which MM cells were grown in co-culture with a bone marrow stromal cell line HS-5. MM cell lines adhere to stromal cells in culture and the stromal cells can provide a protective effect against drug induced apoptosis/growth inhibition. Dose response curves were generated for the PI-sensitive cell line MM.1 S, and the two PI resistant lines MM.1S BR and MM.1S CR in presence of HS-5 by standard CTG assay.

[4] = test system: bone marrow cell line HS-5; conditions: bone marrow stromal cell line HS-5, FIG. 5
Protocol: as §3

[5] = test system: MM.1S in presence of HS-5; conditions: MM.1S in co-culture with HS-5, FIG. 5
Protocol: as §3

[6] = test system: MM.1S BR in presence of HS-5; conditions: MM.1S BR in co-culture with HS-5, FIG. 5
Protocol: as §3

[7] = test system: MM.1S BR (bortezomib resistant)
Text: as §2

H1112 = conditions: H1112, 24 hours, Table 1
Protocol: as §1

XG-1 = conditions: XG-1, 24 hours, Table 1
Protocol: as §1

JJN3 = conditions: JJN3, 24 hours, Table 1
Protocol: as §1

MOLP8 = conditions: MOLP8, 24 hours, Table 1
Protocol: as §1

XG-2 = conditions: XG-2, 24 hours, Table 1
Protocol: as §1

KMS27 = conditions: KMS27, 24 hours, Table 1
Protocol: as §1

[8] = read-out: BOLD-100 IC50, 24 hours, Example 2, FIG. 2A

[Cl][Ru]([Cl])([Cl])[Cl].[Na+].c1ccc2[nH]ncc2c1.c1ccc2[nH]ncc2c1 [BOLD-100, Sodium trans-[tetrachloridobis(1H-indazole)ruthenate(III)]]
sensitivity to BOLD-100 compared to parental OPM2 ([1]; FIG. 2B): higher sensitivity | IC50 ([1]; Table 1): 108 µM | IC50 [2]: 51 µM | IC50 (MM.1S; 24 hours, Table 1): 106 µM | IC50 (MM.1S; [8]): 83 µM | IC50 (OPM2; Table 1): 130 µM | IC50 (OPM2; read-out: BOLD-100 IC50, Example 2, FIG. 2B): 120 µM | impact on viability [3]: negatively impact the viability | impact on viability [4]: minimal impact | impact on viability [5]: negatively impact the viability | impact on viability [6]: negatively impact the viability | IC50 [7, 8]: 23 µM | IC50 ([7]; read-out: BOLD-100 IC50, 24 hours, FIG. 2A legend): 23 µM | IC50 (H1112): 72 µM | IC50 (XG-1): 49 µM | IC50 (JJN3): Not reached | IC50 (MOLP8): 115 µM | IC50 (XG-2): 54 µM | IC50 (KMS27): 128 µM
